What all share (assay type): biochemical
Experiment [1] has as its target Chymotrypsin (Bos taurus, UniProt P00766). The experiment is described as follows: Chymotrypsin inhibitory effects (Hestrin color method, acetyl-L-tyrosine ethyl ester substrate). Conditions: pH 8.0, 10 min preincubation, 30 min at 37° C., ethyl ester of acetyl-L-tyrosine; read-out: 50% Inhibitory Concentration, Chymotrypsin. The method, then:
Following the procedure of Muramatsu et al [The Journal of Biochemistry, 62, 408 (1967)], a mixture of 0.1 ml of a dimethylsulfoxide solution of each test compound, 0.1 ml of water and 0.1 ml of a buffer solution containing chymotrypsin in an amount of 10 μg/ml (a 0.1 mole trishydrochloric acid buffer solution, pH 8.0) was incubated for 10 minutes, combined with 0.1 ml of a buffer solution containing 25 millimoles of an ethyl ester of acetyl-L-tyrosine and then reacted with the ethyl ester at 37° C. for 30 minutes. The remaining substrate was caused to develop a color in accordance with the Hestrin method, and the amount was determined by measuring the absorbance at 530 nm. As a control compound, use was made of tosylphenylalanine chloromethyl ketone.

Experiment [2] concerns the target T1, Trypsin (Bos taurus, UniProt P00760).
T1 sequence (P00760 24-246): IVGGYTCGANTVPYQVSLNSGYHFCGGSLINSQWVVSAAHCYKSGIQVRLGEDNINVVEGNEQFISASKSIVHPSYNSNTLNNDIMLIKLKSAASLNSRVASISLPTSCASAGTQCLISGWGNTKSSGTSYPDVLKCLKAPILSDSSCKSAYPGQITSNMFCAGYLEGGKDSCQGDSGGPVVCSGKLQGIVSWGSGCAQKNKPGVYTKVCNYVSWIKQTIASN
The experiment can be described thus: Trypsin inhibitory effects (Hestrin color method, tosylarginine methyl ester substrate). Conditions: pH 8.0, 10 min preincubation, 30 min at 37° C., methyl ester of tosylarginine; read-out: 50% Inhibitory Concentration, Trypsin. As for the experimental part:
Following the procedure of Muramatsu et al [The Journal of Biochemistry, 58, 214 (1967)], a mixture of 0.1 ml of a dimethylsufoxide solution of each test compound, 0.1 ml of a buffer solution (obtained by dissolving 10 millimoles of calcium chloride in a 0.1 mole trishydrochloric acid buffer solution, pH 8.0) and 0.1 ml of a buffer solution containing trypsin in an amount of 2.5 μg/ml was incubated for 10 minutes, mixed with 0.2 ml of a buffer solution containing 25 millimoles of a methyl ester of tosylarginine and then reacted with the methyl ester at 37° C. for 30 minutes. The remaining substrate was caused to develop a color in accordance with the Hestrin method, and the amount was determined by measuring the absorbance at 530 nm.

For experiment [3], the target named is Thrombin (Homo sapiens, UniProt P00734). The experiment can be described thus: Thrombin inhibitory effects (Hestrin color method, tosylarginine methyl ester substrate). The note with it: pH 7.4, 10 min preincubation, 30 min at 37° C., methyl ester of tosylarginine; read-out: 50% Inhibitory Concentration, Thrombin. As for the experimental part:
Following the procedure of Tamura et al [Biochim. Biophys. Acta, 484, 417 (1977)], a mixture of 0.1 ml of a dimethylsulfoxide solution of each test compound, 0.1 ml of a buffer solution (a 0.1 mole sodium phosphate buffer, pH 7.4) and 0.1 ml of a buffer solution containing thrombin in an amount of 37.5 units/ml was incubated for 10 minutes, mixed with 0.2 ml of a buffer solution containing 25 millimoles of a methyl ester of tosylarginine and then reacted with the methyl ester at 37° C. for 30 minutes. The remaining substrate was caused to develop a color in accordance with the Hestrin method, and the amount was determined by measuring the absorbance at 530 nm.

Some results are limits rather than exact numbers.

Take `Cc1ccc(S(=O)(=O)N[C@@H](Cc2ccccc2)C(=O)CCl)cc1` [TPCK, Tosylphenylalanine chloromethyl ketone, reference compound]: in experiment [1], the IC50 is 500 µM.

Consider `COc1ccc2[nH]c(C)c(CC(=O)Oc3ccc(C(=O)OCCN4CCN(CCN5CCOCC5)CC4)cc3)c2c1` [Test Compound 1, 4-{[2-[4-[2-(Morpholino)ethyl]piperazino]ethyl]oxycarbonyl}phenyl 5-methoxy-2-methylindole-3-acetate], for which the IC50 in experiment [2] was 50 µM; in experiment [3], 100 µM; in experiment [1], 0.1 µM.

Turning to `COc1ccc2c(c1)c(CC(=O)Oc1ccc(C(=O)OCCN3CCN(CC(=O)N4CCCC4)CC3)cc1)c(C)n2C` [Test Compound 2, 4-{[2-[4-(Pyrrolidinocarbonylmethyl)piperazino]ethyl]oxycarbonyl}phenyl 1,2-dimethyl-5-methoxyindole-3-acetate], the IC50 in experiment [2] was 500 µM; in experiment [3] it was 900 µM; in experiment [1], 0.07 µM.

For `O=C(OCCN1CCN(CC(=O)N2CCOCC2)CC1)c1ccc(OC(=O)C2CCCc3ccccc32)cc1` (stereo not shown) [Test Compound 3, 4-{[2-[4-(Morpholinocarbonylmethyl)piperazino]ethyl]oxycarbonyl}phenyl 1,2,3,4-tetrahydro-1-naphthoate], the IC50 in experiment [2] came to 500 µM; in experiment [3], 90 µM; in experiment [1] it was 0.6 µM.

Regarding `CN(C)C(=O)CN1CCN(CCOC(=O)c2ccc(OC(=O)Cc3cccc4ccccc34)cc2)CC1` [Test Compound 4, 4-{[2-[4-(Dimethylaminocarbonylmethyl)piperazino]ethyl]oxycarbonyl}phenyl 1-naphthylacetate], the IC50 in experiment [2] was greater than 1000 µM; in experiment [3] it was 9 µM; in experiment [1], 0.3 µM.

As to `O=C(Cc1cccc2ccccc12)Oc1ccc(C(=O)OCCN2CCN(CC(=O)N3CCCCC3)CC2)cc1` [Test Compound 5, 4-{[2-[4-(Piperidinocarbonylmethyl)piperazino]ethyl]oxycarbonyl}phenyl 1-naphtylacetate], the IC50 in experiment [2] is greater than 1000 µM; in experiment [3] it was 9 µM; in experiment [1], 0.3 µM.

Consider `COc1ccc2[nH]c(C)c(CC(=O)Oc3ccc(C(=O)OCCN4CCN(CC(=O)N(C)C)CC4)cc3)c2c1` [Test Compound 6, 4-{[2-[4-(Dimethylaminocarbonylmethyl)piperazino]ethyl]oxycarbonyl}phenyl 5-methoxy-2-methylindole-3-acetate], for which the results for the IC50 in experiment [2], in experiment [3] and in experiment [1] were 80 µM, 60 µM and 0.5 µM, respectively.

Regarding `COc1ccc2[nH]c(C)c(CC(=O)Oc3ccc(C(=O)OCCN4CCN(CC(=O)N5CCOCC5)CC4)cc3)c2c1` [Test Compound 7, 4-{[2-[4-(Morpholinocarbonylmethyl)piperazino]ethyl]oxycarbonyl}phenyl 5-methoxy-2-methylindole-3-acetate], the values for the IC50 in experiment [2], in experiment [3] and in experiment [1] were 200 µM, 70 µM and 0.6 µM, respectively.

Take `COc1ccc2[nH]cc(CC(=O)Oc3ccc(C(=O)OCCN4CCN(CC(=O)N5CCCC5)CC4)cc3)c2c1` [Test Compound 8, 4-{[2-[4-(Pyrrolidinocarbonylmethyl)piperazino]ethyl]oxycarbonyl}phenyl 5-methoxyindole-3-acetate]: the IC50 in experiment [2] is greater than 1000 µM; in experiment [3] it was 600 µM; in experiment [1], 0.05 µM.

On to `COc1ccc2[nH]c(C)c(CC(=O)Oc3ccc(C(=O)OCCN4CCN(C)CC4)cc3)c2c1` [Test Compound 9, 4-{[2-(4-Methylpiperazino)ethyl]oxycarbonyl}phenyl 5-methoxy-2-methylindole-3-acetate], for which the IC50 was 300 µM in experiment [2], 40 µM in experiment [3] and 0.06 µM in experiment [1].

`COc1ccc2[nH]c(C)c(CC(=O)Oc3ccc(C=CC(=O)N4CCN(CC(=O)N5CCCC5)CC4)cc3)c2c1` [Test Compound 10, 1-[4-(5-Methoxy-2-methylindole-3-acetyloxy)cynnamoyl]-4-(pyrrolidinocarbonylmethyl)piperazine]: the IC50 came to 600 µM in experiment [2], 300 µM in experiment [3] and 0.8 µM in experiment [1].

As to `COc1ccc2[nH]c(C)c(CC(=O)Oc3ccc(C(=O)NCCN4CCN(CC(=O)N5CCOCC5)CC4)cc3)c2c1` [Test Compound 11, 4-{[2-[4-(Morpholinocarbonylmethyl)piperazino]ethyl]carbamoyl}phenyl 5-methoxy-2-methylindole-3-acetate], the IC50 in experiment [2] worked out at 80 µM; in experiment [3] it was 100 µM; in experiment [1], 0.6 µM.

For the origin of these results see patent publication US4443603A, “Piperazine derivatives, of aromatic acids” (Kowa Company Limited, priority 1981, dated 1984).
